Measured values reported in patent US8618289B2 (Ambit Biosciences Corporation, priority 2008, dated 2013).
Where two headings read alike, the source gives them in different places.

What was measured:
[1] = target: RAF kinases (Homo sapiens, UniProt P15056, V600E); conditions: read-out: BRAF V600E Kd; BRAF V600E
[2] = test system: 290 distinct kinases tested excluding mutant variants (321 in the larger panel)
[3] = test system: MEK1 phosphorylation in the A375 human melanoma cell line; assay: cells; conditions: A-375, read-out: pMEK IC50
[4] = target: RAF kinases (Homo sapiens, UniProt P04049); assay: biochemical
Chain of RAF kinases (Homo sapiens, UniProt P04049) (P04049 whole entry): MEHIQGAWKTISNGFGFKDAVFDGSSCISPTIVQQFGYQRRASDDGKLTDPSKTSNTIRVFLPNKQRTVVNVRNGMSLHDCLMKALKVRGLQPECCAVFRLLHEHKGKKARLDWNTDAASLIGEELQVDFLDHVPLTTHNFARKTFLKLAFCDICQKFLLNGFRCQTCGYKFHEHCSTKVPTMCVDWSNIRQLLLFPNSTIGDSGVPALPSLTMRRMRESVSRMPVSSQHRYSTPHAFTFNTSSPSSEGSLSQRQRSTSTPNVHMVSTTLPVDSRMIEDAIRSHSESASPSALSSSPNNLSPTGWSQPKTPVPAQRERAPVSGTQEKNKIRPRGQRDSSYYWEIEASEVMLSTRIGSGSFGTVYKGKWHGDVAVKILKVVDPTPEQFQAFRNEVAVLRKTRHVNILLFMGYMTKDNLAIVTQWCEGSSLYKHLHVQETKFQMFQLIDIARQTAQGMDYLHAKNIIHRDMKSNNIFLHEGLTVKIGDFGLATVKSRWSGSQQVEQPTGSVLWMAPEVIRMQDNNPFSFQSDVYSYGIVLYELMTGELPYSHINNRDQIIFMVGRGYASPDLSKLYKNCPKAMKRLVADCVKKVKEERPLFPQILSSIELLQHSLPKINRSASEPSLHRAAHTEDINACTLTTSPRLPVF

[5] = target: RAF kinases (Homo sapiens, UniProt P15056); assay: biochemical
Chain of RAF kinases (Homo sapiens, UniProt P15056) (P15056 whole entry): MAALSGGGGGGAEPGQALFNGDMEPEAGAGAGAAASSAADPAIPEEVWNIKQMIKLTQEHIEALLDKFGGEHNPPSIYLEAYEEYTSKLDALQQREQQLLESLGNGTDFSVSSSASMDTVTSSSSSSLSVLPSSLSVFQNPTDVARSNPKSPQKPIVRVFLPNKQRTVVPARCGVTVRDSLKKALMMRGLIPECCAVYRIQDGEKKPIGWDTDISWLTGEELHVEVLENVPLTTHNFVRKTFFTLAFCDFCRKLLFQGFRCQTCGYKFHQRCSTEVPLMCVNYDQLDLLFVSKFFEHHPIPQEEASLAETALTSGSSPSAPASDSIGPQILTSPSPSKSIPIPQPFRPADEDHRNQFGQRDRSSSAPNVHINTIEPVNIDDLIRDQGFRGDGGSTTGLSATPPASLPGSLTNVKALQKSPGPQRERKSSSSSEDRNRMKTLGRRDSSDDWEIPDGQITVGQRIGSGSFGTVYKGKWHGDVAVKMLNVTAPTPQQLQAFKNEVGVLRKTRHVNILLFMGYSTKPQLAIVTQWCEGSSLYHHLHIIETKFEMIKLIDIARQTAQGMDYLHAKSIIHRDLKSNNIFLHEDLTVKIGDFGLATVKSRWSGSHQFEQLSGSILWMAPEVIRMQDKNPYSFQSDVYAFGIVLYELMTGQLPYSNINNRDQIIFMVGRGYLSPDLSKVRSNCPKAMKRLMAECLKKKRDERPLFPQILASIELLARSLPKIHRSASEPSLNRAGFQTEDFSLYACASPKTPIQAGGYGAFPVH

[6] = test system: A375 cells; assay: cells; conditions: Homo sapiens, A-375, read-out: A375 Viability EC50
[7] = no asterisk: panel of 290 distinct kinases

Chain of RAF kinases (Homo sapiens, UniProt P15056, V600E) (P15056 whole entry V600E): as the sequence (P15056 whole entry) above, with V600E counted along it

Structure (SMILES) | Kd [1] [µM] | S35 [2, 7] | IC50 [3] [µM] | Kd [4] [µM] | Kd [5] [µM] | S35 ([2]; asterisk: panel of 321 distinct kinases) | EC50 [6] [µM]
COc1cc2ncnc(Oc3cccc(NC(=O)Nc4cc(C(C)(C)C)nn4-c4ccncc4)c3)c2cc1OC [Ex336, 1-(3-tert-butyl-1-(pyridin-4-yl)-1H-pyrazol-5-yl)-3-(3-(6,7-dimethoxyquinazolin-4-yloxy)phenyl)urea] | < 0.25 | D (D > 0.40) | < 0.25 | 0.5 to 1 | 0.5 to 1 |  | 
COc1cc2c(Sc3cccc(NC(=O)Nc4cc(C(C)(C)F)no4)c3)ncnc2cc1OCCN1CCOCC1 [Ex 248, 1-(3-(2-fluoropropan-2-yl)isoxazol-5-yl)-3-(3-(6-methoxy-7-(2-morpholinoethoxy)quinazolin-4-ylthio)phenyl)urea] | < 0.25 |  | 0.25 to 0.5 | 0.25 to 0.5 | 0.25 to 0.5 | C* (0.20 < C ≦ 0.40) | > 1
COc1cc2ncnc(Oc3cccc(NC(=O)Nc4cc(C(C)(C)C)nn4-c4cccnc4C)c3)c2cc1OC [Ex 305, 1-(3-tert-butyl-1-(2-methylpyridin-3-yl)-1H-pyrazol-5-yl)-3-(3-(6,7-dimethoxyquinazolin-4-yloxy)phenyl)urea] | < 0.25 | D (D > 0.40) | < 0.25 | 0.25 to 0.5 | 0.5 to 1 |  | < 0.25
COc1cc2ncnc(Oc3cccc(NC(=O)Nc4cc(C(C)(C)C#N)nn4-c4ccccc4)c3)c2cc1OC [Ex 308, 1-(3-(2-cyanopropan-2-yl)-1-phenyl-1H-pyrazol-5-yl)-3-(3-(6,7-dimethoxyquinazolin-4-yloxy)phenyl)urea] | < 0.25 | D (D > 0.40) | < 0.25 | 0.25 to 0.5 | 0.25 to 0.5 |  | 0.25 to 0.5
COc1cc2ncnc(Oc3cccc(NC(=O)Nc4cc(C(C)(C)C)nn4-c4ccc(C)nc4)c3)c2cc1OC [Ex 312, 1-(3-tert-butyl-1-(6-methylpyridin-3-yl)-1H-pyrazol-5-yl)-3-(3-(6,7-dimethoxyquinazolin-4-yloxy)phenyl)urea] | < 0.25 | D (D > 0.40) | < 0.25 | 0.25 to 0.5 | 0.5 to 1 |  | < 0.25
COc1cc2ncnc(Oc3cccc(NC(=O)Nc4cc(C(C)(C)C)nn4-c4cc[nH]c(=O)c4)c3)c2cc1OC [Ex 313, 1-(3-tert-butyl-1-(2-oxo-1,2-dihydropyridin-4-yl)-1H-pyrazol-5-yl)-3-(3-(6,7-dimethoxyquinazolin-4-yloxy)phenyl)urea] | < 0.25 | D (D > 0.40) | 0.25 to 0.5 | 0.25 to 0.5 | 0.25 to 0.5 |  | 0.5 to 1
COc1cc2ncnc(Oc3cccc(NC(=O)Nc4cc(C(C)C)nn4-c4cncc(F)c4)c3)c2cc1OC [Ex 314, 1-(3-(6,7-dimethoxyquinazolin-4-yloxy)phenyl)-3-(1-(5-fluoropyridin-3-yl)-3-isopropyl-1H-pyrazol-5-yl)urea] | < 0.25 | D (D > 0.40) | 0.25 to 0.5 | 0.25 to 0.5 | 0.5 to 1 |  | < 0.25
COc1cc2ncnc(Oc3cccc(NC(=O)Nc4cc(C(C)(F)F)nn4-c4ccccc4)c3)c2cc1OC [Ex 318, 1-(3-(1,1-difluoroethyl)-1-phenyl-1H-pyrazol-5-yl)-3-(3-(6,7-dimethoxyquinazolin-4-yloxy)phenyl)urea] | < 0.25 | C (0.20 < C ≦ 0.40) | < 0.25 | 0.25 to 0.5 | 0.25 to 0.5 |  | < 0.25
COc1cc2ncnc(Sc3cccc(NC(=O)Nc4cc(C(C)(F)F)nn4-c4ccccc4)c3)c2cc1OC [Ex 319, 1-(3-(1,1-difluoroethyl)-1-phenyl-1H-pyrazol-5-yl)-3-(3-(6,7-dimethoxyquinazolin-4-ylthio)phenyl)urea] | < 0.25 | C (0.20 < C ≦ 0.40) | < 0.25 | 0.25 to 0.5 | 0.5 to 1 |  | < 0.25
COc1cc2ncnc(Oc3cccc(NC(=O)Nc4cc(C(C)(C)C)nn4-c4cccnc4)c3)c2cc1OC [Ex 322, 1-(3-tert-butyl-1-(pyridin-3-yl)-1H-pyrazol-5-yl)-3-(3-(6,7-dimethoxyquinazolin-4-yloxy)phenyl)urea] | < 0.25 | D (D > 0.40) | < 0.25 | 0.25 to 0.5 | 0.25 to 0.5 |  | 
COc1cc2ncnc(Sc3cccc(NC(=O)Nc4cc(C(C)(C)C)nn4-c4cccnc4)c3)c2cc1OC [Ex 323, 1-(3-tert-butyl-1-(pyridin-3-yl)-1H-pyrazol-5-yl)-3-(3-(6,7-dimethoxyquinazolin-4-ylthio)phenyl)urea] | < 0.25 | D (D > 0.40) | < 0.25 | 0.5 to 1 | 0.5 to 1 |  | 0.25 to 0.5
COc1cc2ncnc(Oc3cccc(NC(=O)Nc4cc(C(C)C)nn4-c4ccccc4)c3)c2cc1OC [Ex 324, 1-(3-(6,7-dimethoxyquinazolin-4-yloxy)phenyl)-3-(3-isopropyl-1-phenyl-1H-pyrazol-5-yl)urea] | < 0.25 | D (D > 0.40) | < 0.25 | 0.25 to 0.5 | 0.25 to 0.5 |  | < 0.25
COc1cc2ncnc(Sc3cccc(NC(=O)Nc4cc(C(C)C)nn4-c4ccccc4)c3)c2cc1OC [Ex 325, 1-(3-(6,7-dimethoxyquinazolin-4-ylthio)phenyl)-3-(3-isopropyl-1-phenyl-1H-pyrazol-5-yl)urea] | < 0.25 | C (0.20 < C ≦ 0.40) | < 0.25 | 0.25 to 0.5 | 0.25 to 0.5 |  | < 0.25
COc1cc2ncnc(Oc3cccc(NC(=O)Nc4cc(C(C)(C)C)nn4-c4cncc(F)c4)c3)c2cc1OC [Ex 326, 1-(3-tert-butyl-1-(5-fluoropyridin-3-yl)-1H-pyrazol-5-yl)-3-(3-(6,7-dimethoxyquinazolin-4-yloxy)phenyl)urea] | < 0.25 | D (D > 0.40) | < 0.25 | 0.5 to 1 | 0.5 to 1 |  | 
COc1cc2ncnc(Sc3cccc(NC(=O)Nc4cc(C(C)(C)C)nn4-c4cncc(F)c4)c3)c2cc1OC [Ex 327, 1-(3-tert-butyl-1-(5-fluoropyridin-3-yl)-1H-pyrazol-5-yl)-3-(3-(6,7-dimethoxyquinazolin-4-ylthio)phenyl)urea] | < 0.25 | D (D > 0.40) | < 0.25 | 0.5 to 1 | 0.5 to 1 |  | 
COc1cc2ncnc(Oc3cccc(NC(=O)Nc4cc(C(C)(C)C)nn4-c4ccc(C#N)cc4)c3)c2cc1OC [Ex 328, 1-(3-tert-butyl-1-(4-cyanophenyl)-1H-pyrazol-5-yl)-3-(3-(6,7-dimethoxyquinazolin-4-yloxy)phenyl)urea] | < 0.25 | D (D > 0.40) | < 0.25 | 0.25 to 0.5 | 0.25 to 0.5 |  | 
COc1cc2ncnc(Oc3cccc(NC(=O)Nc4cc(C(C)(C)C)nn4CC(C)C)c3)c2cc1OC [Ex 332, 1-(3-tert-butyl-1-isobutyl-1H-pyrazol-5-yl)-3-(3-(6,7-dimethoxyquinazolin-4-yloxy)phenyl)urea] | < 0.25 | C (0.20 < C ≦ 0.40) | 0.5 to 1 | 0.25 to 0.5 | 0.25 to 0.5 |  | > 1
COc1cc2ncnc(Sc3cccc(NC(=O)Nc4cc(C(C)(C)C)nn4CC(C)C)c3)c2cc1OC [Ex 333, 1-(3-tert-butyl-1-isobutyl-1H-pyrazol-5-yl)-3-(3-(6,7-dimethoxyquinazolin-4-ylthio)phenyl)urea] | < 0.25 | C (0.20 < C ≦ 0.40) | 0.5 to 1 | 0.25 to 0.5 | 0.25 to 0.5 |  | 
COc1cc2ncnc(Oc3cccc(NC(=O)Nc4cc(C(C)(C)C)nn4C(C)C)c3)c2cc1OC [Ex 334, 1-(3-tert-butyl-1-isopropyl-1H-pyrazol-5-yl)-3-(3-(6,7-dimethoxyquinazolin-4-yloxy)phenyl)urea] | < 0.25 | C (0.20 < C ≦ 0.40) | 0.5 to 1 | 0.25 to 0.5 | 0.25 to 0.5 |  | 0.5 to 1
COc1cc2ncnc(Sc3cccc(NC(=O)Nc4cc(C(C)(C)C)nn4C(C)C)c3)c2cc1OC [Ex 335, 1-(3-tert-butyl-1-isopropyl-1H-pyrazol-5-yl)-3-(3-(6,7-dimethoxyquinazolin-4-ylthio)phenyl)urea] | < 0.25 | C (0.20 < C ≦ 0.40) | 0.25 to 0.5 | 0.25 to 0.5 | 0.25 to 0.5 |  | > 1
COc1cc2ncnc(Sc3cccc(NC(=O)Nc4cc(C(C)(C)C)nn4-c4ccncc4)c3)c2cc1OC [Ex 337, 1-(3-tert-butyl-1-(pyridin-4-yl)-1H-pyrazol-5-yl)-3-(3-(6,7-dimethoxyquinazolin-4-ylthio)phenyl)urea] | < 0.25 | D (D > 0.40) | < 0.25 | 0.5 to 1 | 0.5 to 1 |  | 
COc1cc2ncnc(Oc3cccc(NC(=O)Nc4cc(C(F)(F)F)nn4-c4cccc(C)c4)c3)c2cc1OC [Ex 338, 1-(3-(6,7-dimethoxyquinazolin-4-yloxy)phenyl)-3-(1-m-tolyl-3-(trifluoromethyl)-1H-pyrazol-5-yl)urea] | < 0.25 | C (0.20 < C ≦ 0.40) | < 0.25 | 0.25 to 0.5 | 0.5 to 1 |  | < 0.25
COc1cc2ncnc(Oc3cccc(NC(=O)Nc4cc(C5CCC5)nn4-c4ccccc4)c3)c2cc1OC [Ex 355, 1-(3-cyclobutyl-1-phenyl-1H-pyrazol-5-yl)-3-(3-(6,7-dimethoxyquinazolin-4-yloxy)phenyl)urea] | < 0.25 | C (0.20 < C ≦ 0.40) | < 0.25 | 0.5 to 1 | 0.5 to 1 |  | < 0.25
